In patent US8394828B2 (Janssen Pharmaceutica, NV, priority 2003, dated 2013):

target: T1, human VR1 (Homo sapiens, UniProt Q8NER1); test: Human VR1 [3H] RTX binding assay; conditions: 3H-RTX binding; compound at 1 μM
T1 construct: expressed in transfected cells; host or cells: HEK293
Description: Compounds of the present invention were tested for their ability to inhibit the binding of [^3H] RTX to hVR1 receptors in a [^3H]
HEK293 cells were transfected with human VR1 vanilloid receptors and washed with Hank's Balanced Salt Solution, dissociated with cell dissociation buffer (Sigma), and then centrifuged at 1000×g for 5 min. […] The pelleted membranes were kept in an −80° C. freezer.
Approximately 120 μg protein/ml from membranes were incubated with indicated concentrations of [^3H] RTX in 0.5 ml of the HEPES buffer (pH 7.4) containing 0.25 mg/mL fatty acid-free bovine serum albumin at 37° C. for 60 min. […] The tip of the microcentrifuge tube containing the pellet was cut off. Bound radioactivity was quantified by scintillation counting. Non-specific binding was tested in the presence of 200 nM unlabeled RTX.

T1 sequence (Q8NER1 whole entry): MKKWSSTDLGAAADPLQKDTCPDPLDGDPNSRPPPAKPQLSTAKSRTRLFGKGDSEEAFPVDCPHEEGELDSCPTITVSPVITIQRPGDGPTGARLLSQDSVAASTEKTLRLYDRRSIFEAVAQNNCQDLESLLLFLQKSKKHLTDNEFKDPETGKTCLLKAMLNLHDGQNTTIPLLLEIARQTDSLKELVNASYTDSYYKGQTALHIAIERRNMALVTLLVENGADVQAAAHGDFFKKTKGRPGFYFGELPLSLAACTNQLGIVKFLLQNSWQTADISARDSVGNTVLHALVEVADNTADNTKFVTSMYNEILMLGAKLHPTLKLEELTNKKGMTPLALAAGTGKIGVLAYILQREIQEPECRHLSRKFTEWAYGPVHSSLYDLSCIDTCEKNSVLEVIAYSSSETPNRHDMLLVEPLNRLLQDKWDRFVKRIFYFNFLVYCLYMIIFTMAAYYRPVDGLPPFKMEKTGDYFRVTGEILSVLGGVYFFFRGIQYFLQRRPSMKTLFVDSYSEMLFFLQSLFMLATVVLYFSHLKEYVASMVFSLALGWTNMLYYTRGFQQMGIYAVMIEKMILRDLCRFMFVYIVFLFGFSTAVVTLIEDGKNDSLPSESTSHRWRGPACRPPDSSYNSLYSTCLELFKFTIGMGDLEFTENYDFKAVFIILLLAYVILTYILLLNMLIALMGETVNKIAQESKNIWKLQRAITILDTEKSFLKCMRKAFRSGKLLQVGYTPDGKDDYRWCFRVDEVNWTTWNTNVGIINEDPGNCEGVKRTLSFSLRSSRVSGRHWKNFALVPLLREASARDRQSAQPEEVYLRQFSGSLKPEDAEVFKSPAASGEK

| Compound | inhibition at 1 µM [%] |
| --- | --- |
| CCCCCCCN(C)c1ccccc1C(=O)Nc1cnc2ccccc2c1 [2-(Heptyl-methyl-amino)-N-quinolin-3-yl-benzamide] | 0 |
| CCCCCN(C)c1ccccc1C(=O)Nc1cnc2ccccc2c1 [2-(Methyl-pentyl-amino)-N-quinolin-3-yl-benzamide] | 21 |
| O=C(Nc1cnc2ccccc2c1)c1ccc(NCC2CCCCC2)cc1Cl [2-Chloro-4-(cyclohexylmethyl-amino)-N-quinolin-3-yl-benzamide] | 65 |
| CCCCCNc1ccccc1C(=O)Nc1cnc2ccccc2c1 [2-Pentylamino-N-quinolin-3-yl-benzamide] | 23 |
| CN(c1cccc(C(=O)Nc2cnc3ccccc3c2)c1)C1CCCCC1 [3-(Cyclohexyl-methyl-amino)-N-quinolin-3-yl-benzamide] | 89 |

More lines, now with the values ahead:

| inhibition at 1 µM [%] | Compound |
| --- | --- |
| 104 | O=C(Nc1cnc2ccccc2c1)c1ccc(N2CC[C@@H]3CCCC[C@H]3C2)cc1 (relative stereo) [trans-4-(Octahydro-isoquinolin-2-yl)-N-quinolin-3-yl-benzamide] |
| 65 | CCCCCN(C)c1ccc(C=CC(=O)Nc2cnc3ccccc3c2)cc1 [3-{4-(Methyl-pentyl-amino)-phenyl}-N-quinolin-3-yl-acrylamide] |
| 1 | O=C(Nc1cnc2ccccc2c1)c1ccc(N2Cc3ccccc3C2)cc1 [4-(1,3-Dihydro-isoindol-2-yl)-N-quinolin-3-yl-benzamide] |
| 9 | O=C(Nc1cnc2ccccc2c1)c1ccc(N2CCC3(CC2)OCCO3)cc1 [4-(1,4-Dioxa-8-aza-spiro[4.5]dec-8-yl)-N-quinolin-3-yl-benzamide] |
| 78 | CC1CCCN(c2ccc(C(=O)Nc3cnc4ccccc4c3)cc2)C1 (stereo not shown) [4-(3-Methyl-piperidin-1-yl)-N-quinolin-3-yl-benzamide] |

same assay, conditions: 3H-RTX binding; compound at 1 μM; 1 µM

| 3H-RTX binding assay % Inhibition @ 1 μM [%] | Compound |
| --- | --- |
| 1 | O=C(Nc1cnc2ccccc2c1)c1ccc(N2CCCCC2)nc1 [3,4,5,6-Tetrahydro-2H-[1,2′]bipyridinyl-5′-carboxylic acid q] [3,4,5,6-Tetrahydro-2H-[1,2′]bipyridinyl-5′-carboxylic acid quinolin-3-ylamide] |
| 100 | O=C(Nc1cnc2ccccc2c1)c1ccc(N2CCCCC2)nc1 [3,4,5,6-Tetrahydro-2H-{1,2′}bipyridinyl-5′-carboxylic acid q] [3,4,5,6-Tetrahydro-2H-{1,2′}bipyridinyl-5′-carboxylic acid quinolin-3-ylamide] |

same assay, conditions: 3H-RTX binding; hVR1; read-out: 3H-RTX binding assay Ki hVR1

| Compound | Ki [nM] |
| --- | --- |
| CCCCCN(CCCCC)c1ccc(CC(=O)Nc2cnc3ccccc3c2)cc1 [2-(4-Dipentylamino-phenyl)-N-quinolin-3-yl-acetamide] | 508 |
| CCCCCc1ccc(CC(=O)Nc2cnc3ccccc3c2)cc1 [2-(4-Pentyl-phenyl)-N-quinolin-3-yl-acetamide] | 2200 |
| CC(C)(C)c1ccc(CC(=O)Nc2cnc3ccccc3c2)cc1 [2-(4-tert-Butyl-phenyl)-N-quinolin-3-yl-acetamide] | 5760 |
| O=C(Nc1cnc2ccccc2c1)c1ccc(NCC2CCCCC2)cc1Cl [2-Chloro-4-(cyclohexylmethyl-amino)-N-quinolin-3-yl-benzamide] | 1130 |
| CCCCCN(C)c1ccc(CC(=O)Nc2cnc3ccccc3c2)cc1 [2-{4-(Methyl-pentyl-amino)-phenyl}-N-quinolin-3-yl-acetamide] | 1350 |
| CCCCCN(CCCCC)c1ccc(CCC(=O)Nc2cnc3ccccc3c2)cc1 [3-(4-Dipentylamino-phenyl)-N-quinolin-3-yl-propionamide] | 153 |
| CC(C)(C)c1ccc(C=CC(=O)Nc2cnc3ccccc3c2)cc1 [3-(4-tert-Butyl-phenyl)-N-quinolin-3-yl-acrylamide] | 1.11 |
| CC(C)(C)c1ccc(CCC(=O)Nc2cnc3ccccc3c2)cc1 [3-(4-tert-Butyl-phenyl)-N-quinolin-3-yl-propionamide] | 2.03 |
| CN(c1cccc(C(=O)Nc2cnc3ccccc3c2)c1)C1CCCCC1 [3-(Cyclohexyl-methyl-amino)-N-quinolin-3-yl-benzamide] | 98.2 |

More lines, now with the values ahead:

| Ki [nM] | Compound |
| --- | --- |
| 29.2 | O=C(Nc1cnc2ccccc2c1)c1ccc(N2CC[C@@H]3CCCC[C@H]3C2)cc1 (relative stereo) [trans-4-(Octahydro-isoquinolin-2-yl)-N-quinolin-3-yl-benzamide] |
| 15.9 | CC(C)(CCc1ccccc1)c1ccc(CCC(=O)Nc2cnc3ccccc3c2)cc1 [3-{4-(1,1-Dimethyl-3-phenyl-propyl)-phenyl}-N-quinolin-3-yl-propionamide] |
| 122 | CCCCCN(C)c1ccc(C=CC(=O)Nc2cnc3ccccc3c2)cc1 [3-{4-(Methyl-pentyl-amino)-phenyl}-N-quinolin-3-yl-acrylamide] |
| 14.2 | CCC(C)(C)c1ccc(CCC(=O)Nc2cnc3ccccc3c2)s1 [3-{5-(1,1-Dimethyl-propyl)-thiophen-2-yl}-N-quinolin-3-yl-propionamide] |
